Reference: patent publication US20230201290A1, “TGF-BETA INHIBITION, AGENTS AND COMPOSITION THEREFOR” (GMP BIOTECHNOLOGY LIMITED, priority 2020, published 2023)

How the values were obtained:
solid tumors = test: Phase I/II study P001, i.v. trabedersen: all patients, MTD and DLT; format: in vivo, human
Text: (§1) P001 is a completed Phase I/II dose escalation study. Primary objective is the determination of the MTD as well as the DLT of 2 cycles as core treatment and up to 8 optional extension cycles of trabedersen administered i.v. for 4 or 7 d every other week, as described in the following. The study followed a classical cohort design with 3 evaluable patients per cohort. Patients treated with the 1st schedule received trabedersen continuously for 7 d, followed by a treatment-free interval of 7 d for each treatment cycle (7-d-on, 7-d-off). After the MTD had been reached for this schedule, a 2nd schedule of 4 d trabedersen administration, followed by a treatment-free interval of 10 d for each treatment cycle was started (4-d-on, 10-d-off). In this treatment schedule the MTD has not been reached.
Primary objective of the study is the determination of the maximum tolerated dose (MTD) as well as the dose limiting toxicity (DLT) of two cycles of Trabedersen administered every other week. Secondary objectives include safety and tolerability, pharmacokinetic profile and potential antitumor activity of intravenous Trabedersen treatment.
(§2) Trabedersen was administered as i.v. continuous infusion for 4 or 7 days every other week via an implanted subcutaneous port system connected to a portable pump and with a flow rate of 0.8 mL/h. The core treatment consisted of 2 treatment cycles. Up to 8 optional extension cycles were administered in case of clinical benefit.
The dose escalation followed a classical cohort design with at least 3 and up to 6 patients per cohort receiving Trabedersen. The starting dose was chosen based on the Lowest-Observed-Adverse-Effect Level (LOAEL) determined in monkeys as the most relevant species. […] The Data and Safety Monitoring Board (DSMB) regularly reviewed available safety and efficacy data before each escalation step. Generally, if patients of one cohort had tolerated the therapy, the next cohort received the next higher dose. Toxicity was assessed based on National Cancer Institute-Common Toxicity Criteria (NCI-CTC, version 2). A DLT was defined as an at least possibly related, medically important adverse event, of NCI-CTC grade 3 or 4, a worsening by ≥2 grades from baseline for renal or hepatic toxicities, a worsening by ≥3 grades from baseline for other laboratory parameters, or other toxicities considered dose-limiting by the investigator. If more than 2 patients of a cohort had DLTs, the next lower dose was defined as MTD. Dose-escalation had to be stopped if MTD was reached.
(§3) The overall survival is calculated for all patients as the survival time from the onset of treatment with study medication to death due to any cause and analyzed with the Kaplan-Meier method.
Altogether 33 patients with advanced pancreatic cancer, malignant melanoma, or colorectal cancer were enrolled for dose escalation (Table 15). Patients treated in the first treatment schedule received Trabedersen continuously for 7 days, followed by a treatment-free interval of 7 days for each treatment cycle (7-days-on, 7-days-off).
After the MTD had been reached in the 7-days-on, 7-days-off schedule, a second dose escalation was started using a modified treatment schedule with 4 days Trabedersen administration, followed by a treatment-free interval of 10 days for each treatment cycle (4-days-on, 10-days-off).

TGF-β2 secretion = TGF-β2 secretion in human tumor cell lines; format: cell-based; settings: human HGG cell line A-172, 7 days, 10 trabedersen (unit not given)
Experimental: The effect of trabedersen on TGF-β2 secretion was analyzed in cell lines of human HGG, human pancreatic carcinoma, malignant melanoma, colorectal carcinoma, and other tumors (prostate carcinoma, renal cell carcinoma, and non-small cell lung carcinoma). The TGF-β2 concentration in cell culture supernatants after treatment with trabedersen for 7 days was analyzed.
The biological activity of truncated trabedersen, i.e. metabolites, in comparison to full-length trabedersen with respect to inhibition of TGF-β2 secretion was tested in the human HGG cell line A-172.

[1] = tested on: advanced pancreatic cancer; test: Phase I/II study P001: patients with pancreatic cancer; format: in vivo, human
Text: as §1, §2, §3
Altogether 21 patients with pancreatic cancer were treated during dose escalation.
There was no clear dose-response relationship, neither in the 7-days-on, 7-days-off schedule nor in the 4-days-on, 10-days-off schedule. A similar pattern is seen when the 5 patients with malignant melanoma and 5 patients with colorectal cancer treated during dose-escalation are also included.

IL-6 = settings: data-mining of P001 cytokine profiling
[2] = Toxicology in monkeys (LOAEL); format: in vivo
malignant melanoma = test: Phase I/II study P001: patients with malignant melanoma; format: in vivo, human
colorectal cancer = test: Phase I/II study P001: patients with colorectal cancer; format: in vivo, human; settings: all colorectal patients independent of dose and schedule
Text: as §1
Trabedersen was administered as i.v. continuous infusion for 4 or 7 days every other week via an implanted subcutaneous port system connected to a portable pump and with a flow rate of 0.8 mL/h. […]
as §3
One patient with AJCC Stage IV colorectal cancer treated in the 240 mg/m^2/day cohort of the 7-day-on, 7-day-off schedule was assessed with stable disease and survived for 7.3 months. […]

[3] = 4-days-on, 10-days-off, 140 mg/m^2/day
[4] = 4-days-on, 10-days-off, 140 mg/m^2/day (additional patients)
[5] = 4-days-on, 10-days-off, 190 mg/m^2/day
[6] = 4-days-on, 10-days-off, 250 mg/m^2/day
[7] = 4-days-on, 10-days-off, 330 mg/m^2/day
[8] = 7-days-on, 7-days-off, 40 mg/m^2/day
[9] = 7-days-on, 7-days-off, 80 mg/m^2/day
[10] = 7-days-on, 7-days-off, 160 mg/m^2/day
[11] = 7-days-on, 7-days-off, 240 mg/m^2/day

cggcatgtct attttgta (antisense CGGCATGTCTATTTTGTA; chemistry not given here) [OT-101]
Dose limiting toxicities (NCI-CTC grade) (solid tumors; [3]): — 1 gastrointestinal bleeding (3)
Median Overall Survival, All patients (solid tumors; [3]): 14.5 months
Median Overall Survival, All patients (solid tumors; [4]): 6.0^2 months
Median Overall Survival, All patients (solid tumors; [5]): 9.3 months
Median Overall Survival, All patients (solid tumors; [6]): 9.8 months
Median Overall Survival, All patients (solid tumors; [7]): 3.0 months
MTD (solid tumors; 4-days-on, 10-days-off, 140 to 330 mg/m^2/day): without reaching an MTD
MTD (solid tumors; 7-days-on, 7-days-off schedule): 160 mg/m^2/day
Median Overall Survival, All patients (solid tumors; [8]): 6.9 months
Median Overall Survival, All patients (solid tumors; [9]): 9.2 months
Median Overall Survival, All patients (solid tumors; [10]): 2.9 months
Median Overall Survival, All patients (solid tumors; [11]): 6.5 months
Dose limiting toxicities (NCI-CTC grade) (solid tumors; 7-days-on, 7-days-off, 240 mg/m^2/day, listed as Trabedersen): 2 thrombocytopenias, 1 exanthema and — 1 exanthema (3) and — 2 thrombocytopenias (3)
highest inhibitory effect on TGF-β2 secretion (TGF-β2 secretion): 64%
CC50 (Vero 76 cells): > 1000 µg/mL
Toxicity at the highest dose (Vero 76 cells; 1000 μg/ml): not toxic
mOS ([1]; 2nd-line therapy, independent of dose and schedule): 8.9 months
mOS ([1]; 2nd-line, 140 mg/m^2/day 4-on/10-off, no subsequent chemotherapy): 2.6 months
mOS ([1]; 2nd-line, 140 mg/m^2/day 4-on/10-off, with subsequent chemotherapy): 16.9 months
mOS ([1]; 2nd-line, 140 mg/m^2/day, 4-days-on, 10-days-off): 14.5 months
Median Overall Survival, Patients with pancreatic cancer [1, 3]: 14.5 months
Median Overall Survival, Patients with pancreatic cancer [1, 4]: 3.3 months
Median Overall Survival, Patients with pancreatic cancer [1, 5]: 6.2 months
Median Overall Survival, Patients with pancreatic cancer [1, 6]: 7.3 months
Median Overall Survival, Patients with pancreatic cancer [1, 7]: 2.4 months
Median Overall Survival, Patients with pancreatic cancer [1, 8]: 6.9 months
Median Overall Survival, Patients with pancreatic cancer [1, 9]: 4.6 months
Median Overall Survival, Patients with pancreatic cancer [1, 10]: 3.9 months
Median Overall Survival, Patients with pancreatic cancer [1, 11]: 5.5 months
mOS ([1]; all 35 pancreatic carcinoma patients, independent of dose and schedule): 4.9 months
mOS ([1]; dose escalation, 4-days-on, 10-days-off schedule): 9.3 months
mOS ([1]; dose escalation, 7-days-on, 7-days-off schedule): 5.7 months
signal of cytokine storm following treatment (IL-6): no signal of cytokine storm
Lowest-Observed-Adverse-Effect Level (LOAEL), equivalent in human adults [2]: 48 mg/m^2/day
Survival (malignant melanoma; 4-days-on, 10-days-off schedule): 11.4 months
mOS (malignant melanoma; 4-days-on, 10-days-off, with subsequent therapies): 13.5 months
mOS (malignant melanoma; 4-days-on, 10-days-off, without subsequent therapies): 6.0 months
Survival (malignant melanoma; 7-days-on, 7-days-off schedule): 7.8 months
mOS (malignant melanoma; 14 additional patients, 140 mg/m^2/day, 4-days-on, 10-days-off): 10.4 months
mOS (malignant melanoma; all melanoma patients independent of dose and schedule): 11.4 months
mOS (malignant melanoma; last cohort 140 mg/m2/day, followed by subsequent therapy): 13.5 months
mOS (malignant melanoma; last cohort 140 mg/m2/day, no subsequent therapy): 6.0 months
mOS (malignant melanoma; melanoma patients of dose escalation): 13.8 months
mOS (malignant melanoma; two patients, 2nd-line, 140 mg/m^2/day 4-on/10-off): 9.5 months
mOS (colorectal cancer): 3.0 months
EC50: 50% effective antiviral concentration (SARS-CoV (Urbani strain); SARS-CoV (Urbani strain), Vero 76, CPE neutral red, day 5): 7.6 µg/mL
SI (CC50/EC50) (SARS-CoV (Urbani strain); SARS-CoV, Vero 76 cells): >38
